Data reported in patent US8173610B2 (priority 2005, dated 2012).
Read-outs that look alike come from different tables or passages of the source.

Experiments:
HCV subgenomic replicon = test: Anti-HCV activity in HCV subgenomic replicon system (Huh7 cells, firefly luciferase); conditions: for Therapeutic Index in HCV replicon system CC50/IC50: Huh7 HCV replicon system
Experimental: The antiviral (anti-HCV) activity of epirubicin and its derivatives was tested in vitro in cell culture model using the HCV subgenomic replicon stably transfected into Huh7 cells line (clone BM4.5) (Gao et al., J. Virol. 2001) and/or in Huh7 cells replicating selectable subgenomic HCV replicon carrying firefly luciferase gene (Vrolijk et al. J. Virol. Method. 2003).
The BM4.5 Huh7 cells were grown in cell culture medium in presence of varying concentrations of epirubicin hydrochloride (BNE00) or epirubicin derivatives. The media and drug were changed everyday for 5 days. After 5 days of treatment cells were lysed and total RNA extracted as described (Gao et al., J. Virol. 2001). The isolated RNA was then assayed for presence of HCV replication by Northern Blot analysis, using a HCV probe targeting the NS5B region of HCV. […] The cell lines were treated everyday with different epirubicin hydrochloride (BNE00) or epirubicin derivatives concentrations for 5 days and at the end of treatment, the RNA from the treated cells were isolated. The total RNA was then probed with a HCV specific probe using Northern blot analysis to detect the HCV RNA. The resulting blot was then exposed to phosphorimager densitometry and the viral replication quantified.
For Huh7 cells replicating selectable subgenomic HCV replicon carrying firefly luciferase gene cells were treated with epirubicin hydrochloride (BNE00) or epirubicin derivatives as described above for BM4,5 cells. Following the treatment, cells were lysed and firefly luciferase activity was measured using Luminoskan device (Thermolabsystem) as described (Vrolijk et al. J. Virol. Methods. 2003).

HCV = test: Inhibition of HCV replication in chronically HCV-infected human PBMC (RT-PCR); conditions: for IC50: read-out: Anti-HCV activity in PBMC IC50; for IC90: read-out: Anti-HCV activity in PBMC IC90
Experimental: In addition, the inhibition of HCV replication by epirubicin hydrochloride (BNE00), N3′-acetylepirubicin (BNE01), and N3′,O4′,O14-triacetylepirubicin (BNE02) were analyzed in chronically HCV-infected human peripheral blood monocyte cells (PBMC) cultures which was performed as follows. PBMC were isolated from HCV-infected patients blood by Ficoll Pague centrifugation placed on Petri dishes and cultured in 10% FCS, RPMI medium containing PHA (3 μg/ml) according to Laskus et al. (J Infect Dis. 2000) and enriched with known concentrations of BNE00, BNE01, BNE02 in standard conditions (37° C., 5% CO2). On day 5 and 14 of the culture the cells were collected and after extraction, HCV RNA was […] estimated by real-time Reverse Transcriptase Polymerase Chain Reaction using SYBR Green system (FIG. 3). Semiquantitative estimation of HCV RNA was also performed by Reverse Transcriptase Polymerase Chain Reaction, and visualized after electrophoresis through a 1% agarose gel, using ethidium bromide staining (FIG. 4).

in vivo = conditions: both, BALB/C, mouse, ip
Experimental: (§1) The in vivo determination of acute toxicity of drugs was performed in mice according to “OECD Guidelines for Testing of Chemicals” (Guideline No 401). The study was performed in BALB/C mice and the test substance was administrated intraperitoneally in dose of 1; 5 and 10 mg/kg b.w. Ten males and 10 females were used for each dose. A control group receiving only solvent was run concurrently.

in vitro = conditions: human
[1] = Cytotoxic activity in Huh7 cells replicating the HCV replicon; conditions: human
Huh7 cells = test: as above; conditions: read-out: Cytotoxic activity in Huh7 Cells, CC50; Huh7 cells replicating subgenomic HCV replicon carrying firefly luciferase gene
BALB/C mice = test: In vivo acute toxicity in mice (OECD Guideline No 401)
Experimental: as §1

[2] = Hepatitis C virus, PBMC, in Homo sapiens
[3] = chronically HCV-infected human PBMC
[4] = read-out: Anti-HCV activity in HCV replicon system IC50, Huh7 cells, subgenomic HCV replicon carrying firefly luciferase gene

SMILES | IC50 (HCV subgenomic replicon; Hepatitis C virus, Huh-7, read-out: Anti-HCV activity in HCV replicon system IC50) [nM] | IC50 (HCV subgenomic replicon; Hepatitis C virus, Huh-7, read-out: anti-HCV IC50) [nM] | Therapeutic Index in HCV replicon system CC50/IC50 (HCV subgenomic replicon) | IC50 (HCV; [2]) [nM] | IC90 (HCV; [2]) [nM] | Therapeutic Index in PBMC TI50 CC50/IC50 (HCV; [3]) | LD50 (in vivo) [mg/kg] | CC50 (in vitro) [nM] | CC90 (in vitro) [nM] | CC50 [1] [nM] | IC50 (HCV subgenomic replicon; [4]) [nM] | CC50 (Huh7 cells) [nM] | IC50 (HCV; [3]) [nM] | IC90 (HCV; [3]) [nM] | CC50 (PBMC) [nM] | CC90 (PBMC) [nM] | LD50 (in vivo acute toxicity) (BALB/C mice; BALB/C mice, intraperitoneal) [mg/kg b.w.] | fold lower acute toxicity compared with epirubicin hydrochloride (BNE00) (BALB/C mice; LD50 ratio, mice) [fold]
COc1cccc2c1C(=O)c1c(O)c3c(c(O)c1C2=O)C[C@@](O)(C(=O)CO)C[C@@H]3O[C@H]1C[C@H](N)[C@@H](O)[C@H](C)O1 [BNE00, 7-O-(3′-amino-2′,3′,6′-trideoxy-α,β-L-arabinohexopyranosyl)-adriamycinone, reference compound] | 2 | 2 to 4 | 1.5 | 320 | 460 | 5.62 | 26.2 | 1800 | 2400 | 3 |  |  |  |  |  |  |  | 
COc1cccc2c1C(=O)c1c(O)c3c(c(O)c1C2=O)CC(O)(C(=O)CO)CC3OC1CC(N(C)C)C(O)C(C)O1 (stereo not shown) [BNE06, 3′-N,N-Dimethyl-4′-epidoxorubicin] |  |  | 3.0 |  |  |  |  |  |  |  | 18 | 60 |  |  |  |  |  | 
COc1cccc2c1C(=O)c1c(O)c3c(c(O)c1C2=O)CC(O)(C(=O)COC(C)=O)CC3OC1CC(NC(C)=O)C(OC(C)=O)C(C)O1 (stereo not shown) [BNE02, N3′, O4′, O14-triacetyl-4′-epidoxorubicin] |  |  | 10 |  |  | >490.0 |  |  |  |  | 500 | 5000 | < 100 | 500 | 49000 | 120000 | 1355.08 | 52
COc1cccc2c1C(=O)c1c(O)c3c(c(O)c1C2=O)C[C@@](O)(C(=O)CO)C[C@@H]3O[C@H]1C[C@@H](NC(C)=O)[C@H](O)[C@H](C)O1 [BNE01, N3′-acetyl-4′-epidoxorubicin] |  |  |  |  |  | 91.7 |  |  |  |  |  |  | 360 | 470 | 33000 | 91000 |  | 
